In the experiment the target is T1, Purified recombinant NBD1 (Homo sapiens, UniProt P13569).
T1 construct: Purified recombinant NBD1 was produced using previously described methods; made in house
The experiment is described as follows: Aggregation analysis using differential static light scattering (DSLS): thermal stability of NBD1. In kind it is binding. Particulars: NBD1 0.2 mg/ml; Tagg of compound well minus average Tagg of DMSO control wells. How it is done: Purified recombinant NBD1 was produced using previously described methods (A. Schmidt, J. L. Mendoza, P. J. Thomas (2011) Biochemical and Biophysical Approaches to Probe CFTR Structure (365-376) M. D. Amaral, K. Kunzelmann (eds.), Cystic Fibrosis, Methods in Molecular Biology 741, Springer Science+Business Media). The effect of test compounds on thermal stability of NBD1 was evaluated by differential static light scattering (DSLS) using the Harbinger Stargazer-384 instrument (Epiphyte Three, Toronto, Canada). Test compounds were dissolved and diluted to desired concentrations in 100% DMSO. The compounds or DMSO controls (100 nL) were stamped into wells of a […] low volume optical plate (Corning Inc., Corning, NY) using the Echo 555 acoustic liquid handler (Labcyte Inc., San Jose, CA).
NBD1 protein was diluted to 0.2 mg/ml in S200 buffer (50 mM Tris-HCl, 150 mM NaCl, 5 mM MgCl2, 2 mM ATP, 2 mM DTT, pH7.6) containing 1% glycerol. 10 uL of protein solution was aliquoted into the 384-well plate harboring the test compounds and 10 uL mineral oil was overlaid onto the protein solution, using the epMotion robotic liquid handler (Eppendorf North America, Hauppauge, NY). After placing into the Stargazer instrument, the plate was heated at 1° C. per minute to 70° C. Images were captured from 25° C. to 70° C. every 0.5° C. At the end of the experiment run, instrument software integrated image files and analyzed data automatically. A […] regression curve was generated for each well, representing the increase in light scattering over time. A temperature of aggregation (Tagg) was calculated based on the inflection point of the curve. To better compare data across experiments the average Tagg for DMSO control wells was calculated and subtracted from values for wells containing compounds to obtain a “ΔTagg” value. These ΔTagg values reflect stabilizing efficacy of the compounds. As set forth in Table 2 below, an ΔTagg value less than or equal to 5° C. is marked “A”; a value above 5° C. and less than or equal to 10° C. is marked “B”; a value greater than 10° C. and less than or equal to 25° C. is marked “C”.

T1 sequence (P13569 423-646 limits assumed): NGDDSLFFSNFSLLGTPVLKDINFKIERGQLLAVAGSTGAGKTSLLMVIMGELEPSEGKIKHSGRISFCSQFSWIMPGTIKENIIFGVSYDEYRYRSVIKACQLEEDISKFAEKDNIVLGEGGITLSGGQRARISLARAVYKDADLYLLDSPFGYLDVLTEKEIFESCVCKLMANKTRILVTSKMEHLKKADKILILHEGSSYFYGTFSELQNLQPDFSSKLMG

For the compound `CN1CC(C)(C)COCC(C)(c2cccc(CCC(=O)O)c2)c2cnc([nH]2)-c2cc(ccc2F)Oc2c(F)cc3[nH]ccc3c2CCC1=O` (racemic) [Compound 20A, 3-[3-(23,29-Difluoro-6,10,10,12-tetramethyl-13-oxo-8,25-dioxa-3,12,20,31-tetrazapentacyclo[24.3.1.12,5.016,24.017,21]hentriaconta-1(30),2,4,16,18,21,23,26,28-nonaen-6-yl)phenyl]propanoic acid], the “DSLS (ΔTagg)” value is “C (a value greater than 10 °C and less than or equal to 25 °C is marked “C”)”.
With `CCOC(=O)CCc1cccc(C2(C)CCCC(C)(C)CN(C)C(=O)CCc3c(c(F)cc4[nH]ccc34)Oc3ccc(F)c(c3)-c3ncc2[nH]3)c1` (single isomer, unassigned) [Compound 48A, ethyl 3-[3-(23,29-difluoro-6,10,10,12-tetramethyl-13-oxo-25-oxa-3,12,20,31-tetrazapentacyclo-[24.3.1.12,5.016,24.017,21]hentriaconta-1(30),2,4,16,18,21,23,26,28-nonaen-6-yl)phenyl]propanoate] the entry was “A (an ΔTagg value less than or equal to 5 °C is marked “A”)”; with `CCOC(=O)CCc1cccc(C2(C)CCCC(C)(C)CN(C)C(=O)CCc3c(c(F)cc4[nH]ccc34)Oc3ccc(F)c(c3)-c3ncc2[nH]3)c1` (single isomer, unassigned) [Compound 48B, ethyl 3-[3-(23,29-difluoro-6,10,10,12-tetramethyl-13-oxo-25-oxa-3,12,20,31-tetrazapentacyclo-[24.3.1.12,5.016,24.017,21]hentriaconta-1(30),2,4,16,18,21,23,26,28-nonaen-6-yl)phenyl]propanoate], “A (an ΔTagg value less than or equal to 5 °C is marked “A”)”.
Then `O=C(O)CCc1cccc(C2CCCCCNC(=O)CCc3c(c(F)cc4[nH]ccc34)Oc3ccc(F)c(c3)-c3ncc2[nH]3)c1` (centres unmarked) [Compound 1, 3-[3-(23,29-difluoro-13-oxo-25-oxa-3,12,20,31-tetrazapentacyclo[24.3.1.12,5.016,24.017,21]hentriaconta-1(30),2,4,16,18,21,23,26,28-nonaen-6-yl)phenyl]propanoic acid], with “B (a value above 5 °C and less than or equal to 10 °C is marked “B”)”; and `O=C1CCc2c(c(F)cc3[nH]ccc23)Oc2ccc(F)c(c2)-c2ncc([nH]2)C(c2ccccc2)CCCCCN1` (centres unmarked) [Compound 2, 23,29-Difluoro-6-phenyl-25-oxa-3,12,20,31-tetrazapentacyclo[24.3.1.12,5.016,24.017,21]hentriaconta-1(30),2,4,16,18,21,23,26,28-nonaen-13-one], with “C (a value greater than 10 °C and less than or equal to 25 °C is marked “C”)”; and `O=C(O)CCc1cccc(C2CCCCCCNC(=O)CCc3c(c(F)cc4[nH]cnc34)Oc3ccc(F)c(c3)-c3ncc2[nH]3)c1` (centres unmarked) [Compound 5, 3-[3-(24,30-Difluoro-14-oxo-26-oxa-3,13,19,21,32-pentazapentacyclo-[25.3.1.12,5.017,25.018,22]dotriaconta-1(31),2,4,17,19,22,24,27,29-nonaen-6-yl)phenyl]propanoic acid], with “B (a value above 5 °C and less than or equal to 10 °C is marked “B”)”.
As to `O=C(O)CCc1cccc(C2CCCCCCNC(=O)Cc3c(c(F)cc4[nH]ccc34)Oc3ccc(F)c(c3)-c3ncc2[nH]3)c1` (centres unmarked) [Compound 6, 3-[3-(23,29-Difluoro-14-oxo-25-oxa-3,13,20,31-tetrazapentacyclo-[24.3.1.12,5.016,24.017,21]hentriaconta-1(30),2,4,16,18,21,23,26,28-nonaen-6-yl)phenyl]propanoic acid], the “DSLS (ΔTagg)” value was “C (a value greater than 10 °C and less than or equal to 25 °C is marked “C”)”.
With `CC(Cc1cccc(C2CCCCCNC(=O)CCc3c(c(F)cc4[nH]ccc34)Oc3ccc(F)c(c3)-c3ncc2[nH]3)c1)C(=O)O` (centres unmarked) [Compound 7, 3-[3-(23,29-Difluoro-13-oxo-25-oxa-3,12,20,31-tetrazapentacyclo-[24.3.1.12,5.016,24.017,21]hentriaconta-1(30),2,4,16,18,21,23,26,28-nonaen-6-yl)phenyl]-2-methyl-propanoic acid] the entry was “C (a value greater than 10 °C and less than or equal to 25 °C is marked “C”)”; with `CN1Cc2c(c(F)cc3[nH]ccc23)Oc2ccc(F)c(c2)-c2ncc([nH]2)C(c2cccc(CCC(=O)O)c2)CCCCCCC1=O` (centres unmarked) [Compound 9, 3-[3-(23,29-Difluoro-14-methyl-13-oxo-25-oxa-3,14,20,31-tetrazapentacyclo[24.3.1.12,5.016,24.017,21]hentriaconta-1(30),2,4,16(24),17(21),18,22,26,28-nonaen-6-yl)phenyl]propanoic acid], “C (a value greater than 10 °C and less than or equal to 25 °C is marked “C”)”; with `O=C(O)CCc1cccc(C2CCCC(=O)NCCCc3c(c(F)cc4[nH]ccc34)Oc3ccc(F)c(c3)-c3ncc2[nH]3)c1` (centres unmarked) [Compound 11, 3-[3-(22,28-Difluoro-10-oxo-24-oxa-3,11,19,30-tetrazapentacyclo[23.3.1.12,5.015,23.016,20]triaconta-1(28),2,4,15(23),16(20),17,21,25(29),26-nonaen-6-yl)phenyl]propanoic acid], “C (a value greater than 10 °C and less than or equal to 25 °C is marked “C”)”.
Turning to `CC1(C)CCCC(C)(c2cccc(CCC(=O)O)c2)c2cnc([nH]2)-c2cc(ccc2F)Oc2c(F)cc3[nH]ccc3c2CCC(=O)NC1` (centres unmarked) [Compound 12, 3-[3-(23,29-Difluoro-6,10,10-trimethyl-13-oxo-25-oxa-3,12,20,31-tetrazapentacyclo[24.3.1.12,5.016,24.017,21]hentriaconta-1(30),2,4,16,18,21,23,26,28-nonaen-6-yl)phenyl]propanoic acid], the “DSLS (ΔTagg)” value was “C (a value greater than 10 °C and less than or equal to 25 °C is marked “C”)”.
Then `O=C1CCc2c(c(F)cc3[nH]ccc23)Oc2ccc(F)c(c2)-c2ncc([nH]2)C(c2ccccc2)CCCCS(=O)(=O)N1` (centres unmarked) [Compound 13, 23,29-Difluoro-11,11-dioxo-6-phenyl-25-oxa-116-thia-3,12,20,31-tetrazapentacyclo[24.3.1.12,5.016,24.017,21]hentriaconta-1(30),2,4,16,18,21,23,26,28-nonaen-13-one], with “C (a value greater than 10 °C and less than or equal to 25 °C is marked “C”)”; and `CN1Cc2c(c(F)cc3[nH]ccc23)Oc2ccc(F)c(c2)-c2ncc([nH]2)C(C)(c2cccc(CCC(=O)O)c2)CCCCCCC1=O` (centres unmarked) [Compound 14, 3-[3-(23,29-Difluoro-6,14-dimethyl-13-oxo-25-oxa-3,14,20,31-tetrazapentacyclo[24.3.1.12,5.016,24.017,21]hentriaconta-1(30),2,4,16(24),17(21),18,22,26,28-nonaen-6-yl)phenyl]propanoic acid], with “C (a value greater than 10 °C and less than or equal to 25 °C is marked “C”)”.
With `O=C(O)CCc1cccc(C2CCC(F)(F)CNC(=O)CCc3c(c(F)cc4[nH]ccc34)Oc3ccc(F)c(c3)-c3ncc2[nH]3)c1` (centres unmarked) [Compound 15, 3-[3-(9,9,22,28-Tetrafluoro-12-oxo-24-oxa-3,11,19,30-tetrazapentacyclo[23.3.1.12,5.015,23.016,20]triaconta-1(28),2,4,15(23),16(20),17,21,25(29),26-nonaen-6-yl)phenyl]propanoic acid] the entry was “C (a value greater than 10 °C and less than or equal to 25 °C is marked “C”)”.

The record behind these values is patent US20250197420A1, “MACROCYCLIC COMPOUNDS, COMPOSITIONS, AND METHODS OF USING THEREOF” (Sionna Therapeutics Inc., priority 2022, published 2025).
